In ChEMBL document CHEMBL1127890, “Syntheses of new bacteriochlorins and their antitumor activity” (1994) one finds Tumor response data, which are given here for three compounds.

What all share (assay type): functional
Common to all, as to conditions: route intravenous

Test [1] has as its system Mus musculus. The experiment in a line: In vivo tumor response 3 hour after post i.v. injection at a dose of 5 mg/kg in DBA/2 mice having SMT/F tumor after 30 days.
For test [2], the system named is Mus musculus. The experiment in a line: In vivo tumor response 3 hour after post i.v. injection at a dose of 5 mg/kg in DBA/2 mice having SMT/F tumor after 1-2 days.
The test system of test [3] is Mus musculus. The experiment in a line: In vivo tumor response 3 hour after post i.v. injection at a dose of 5 mg/kg in DBA/2 mice having SMT/F tumor after 21 days.
The subject of test [4] is Mus musculus. The experiment in a line: In vivo tumor response 3 hour after post i.v. injection at a dose of 5 mg/kg in DBA/2 mice having SMT/F tumor after 7 days.

Regarding `CCOC(=O)C(N)CCCCN1C(=O)C2=C(C)c3cc4[nH]c(cc5[nH]c(cc6nc(c(c2n3)C1=O)[C@@H](CCC(=O)OC)[C@@H]6C)c(C)c5C=O)C(C)(O)C4(O)CC` (some centres undefined), the Tumor response in the test on Mus musculus [1] is 20%; in the test with Mus musculus [2] it was 100%; with Mus musculus [3] it was 20%; in the test with Mus musculus [4], 100%.
As for `CCC1(O)c2cc3nc4c(c5nc(cc6[nH]c(cc([nH]2)C1(C)O)c(C=O)c6C)[C@@H](C)[C@@H]5CCC(=O)NC(CC(=O)OC(C)(C)C)C(=O)OC(C)(C)C)C(=O)OC(=O)C4=C3C` (some centres undefined), the Tumor response in the test with Mus musculus [1] stood at 80%; in the test with Mus musculus [2], 100%; in the test with Mus musculus [3], 80%; in the test on Mus musculus [4], 100%.
Regarding `CCC1(O)c2cc3nc4c(c5nc(cc6[nH]c(cc([nH]2)C1(C)O)c(C=O)c6C)[C@@H](C)[C@@H]5CCC(=O)OC)C(=O)OC(=O)C4=C3C` (some centres undefined), in the test with Mus musculus [2], the Tumor response is 0%.
